Experimental findings from PubChem BioAssay AID686931 (Broad Institute, 2013) are described below.

Assay [1] is described as follows: Confirmatory dose response, V. cholerae DH231 delta cqsS, luciferase light activation (AID 686931). The conditions noted are these: V. cholerae DH231 (delta cqsS) luciferase light production.
Assay [2] relates to V. cholerae DH231 (delta cqsS) luciferase light production. Described as above.

Molecules are shown by their SMILES. Where “and” joins values, the source holds several entries; their conditions need not be identical. Identical values can stand only once. Calls of active or inactive are those of the source. The rule behind the calls is not given here.

`CCCCCCCCCC(=O)C(O)CC` (configuration not stated): the activation in assay [1] (at 50 µM (top of the series)) is -0.408% (inactive).
As to `Cn1nc(NC(=O)c2ccco2)c2cc3ccc(C(C)(C)C)cc3nc21`, in assay [1] (at 100 µM (top of the series)), the activation was -1.04% (inactive).
Turning to `O=C(Nc1nnc(-c2ccc3c(c2)OCCO3)o1)C1CCCCCC1`, in assay [2], the AC40 is 10.5 µM.
Turning to `CC(C)c1ccc2cc3c(NC(=O)c4ccco4)nn(C)c3nc2c1`, the activation in assay [1] (at 100 µM (top of the series)) was 2.47% (inactive).
Take `O=C(Nc1nnc(-c2cccnc2)o1)C1CCCCC1`: the AC40 in assay [2] is 88.1 µM.
With `COc1ccc2cc3c(NC(=O)c4ccco4)nn(C)c3nc2c1`, the AC40 in assay [2] was 1.83 µM.
Regarding `Cc1ccc2cc3c(NC(=O)c4cc5ccccc5o4)nn(C)c3nc2c1`, the activation in assay [1] (at 100 µM (top of the series)) is 0.496% (inactive).
The same measure, in the same setting: as for `O=C(Nc1nnc(-c2ccc3c(c2)OCCO3)o1)C1CC1`, the figure is -0.326% (inactive); as for `Cn1ccc(NC(=O)c2ccco2)n1`, 0.502% (inactive).
On to `CCC(C)(C)C(=O)Nc1nnc(-c2ccc3c(c2)OCCO3)o1`, for which, in assay [1] (at 80 µM (top of the series)), the activation is 0.359% (inactive).
`O=C(Cc1ccc(-c2ccccc2)cc1)NC1CCC1`: the activation in assay [1] (at 100 µM (top of the series)) is -0.546% (inactive).
Take `Cc1cc2cc3c(NC(=O)c4ccco4)nn(C)c3nc2cc1C`: the AC40 in assay [2] was 22.2 µM.
Take `COc1ccccc1-c1nnc(NC(=O)C2CCCCC2)o1`: the AC40 in assay [2] was > 100 µM (inactive).
As for `CC(C)(C)OC(=O)N1CCC(C(=O)Nc2nnc(-c3ccc4c(c3)OCCO4)o2)CC1`, the activation in assay [1] (at 100 µM (top of the series)) is 0.619% (inactive).
The same measure, in the same setting: as for `COc1cccc(-c2nnc(NC(=O)C3CCCCC3)o2)c1`, the figure is 3.05% (inactive); as for `O=C(Nc1nnc(-c2cccnc2)o1)C1CCC1`, 0.588% (inactive).
As for `Cc1ccc2cc3c(NC(=O)c4ccoc4)nn(C)c3nc2c1`, in assay [1] (at 80 µM (top of the series)), the activation was 10.6% (inactive).
Regarding `CN(C)/C=N/c1nnc(-c2ccc3c(c2)OCCO3)o1`, the activation in assay [1] (at 100 µM (top of the series)) is -0.521% (inactive).
As for `O=C(CC1CCCCC1)Nc1nnc(-c2cccnc2)o1`, the activation in assay [1] (at 80 µM (top of the series)) is -0.959% (inactive).
Regarding `CCn1nnnc1NCc1ccc(C(C)C)cc1`, the activation in assay [1] (at 100 µM (top of the series)) is -0.577% (inactive).
Turning to `CN1CCC(C(=O)Nc2nnc(-c3ccc4c(c3)OCCO4)o2)CC1`, the activation in assay [1] (at 100 µM (top of the series)) is 0.079% (inactive).
As to `Cn1nc(NC(=O)c2ccco2)c2ccccc21`, the AC40 in assay [2] was 78.1 µM.
As to `Cc1ccc2cc3c(NC(=O)c4cccs4)nn(C)c3nc2c1`, the AC40 in assay [2] is 75.3 µM.
With `C(=N\c1nnc(-c2ccc3c(c2)OCCO3)o1)/c1ccccc1`, the activation in assay [1] (at 100 µM (top of the series)) was 0.573% (inactive).
For `CCCCCCCCCC(=O)[C@H](O)CC` (racemic), the activation in assay [1] (at 100 µM (top of the series)) was -0.642% (inactive).
In the case of `O=C(Nc1nnc(C2CCCC2)o1)C1CCCCC1`, the activation in assay [1] (at 100 µM (top of the series)) is -0.731% (inactive).
For `Cc1ccc2cc3c(NC(=O)C4CCCC4)nn(C)c3nc2c1`, in assay [2], the AC40 was 37.9 µM.
For the molecule `Cc1ccc2cc3c(NC(=O)Cc4ccco4)nn(C)c3nc2c1`, in assay [1] (at 100 µM (top of the series)), the activation is 13.6% (inactive).
For the molecule `O=C(Nc1nnc(-c2ccc3c(c2)CCCC3)o1)C1CCC1`, in assay [1] (at 80 µM (top of the series)), the activation is -0.346% (inactive).
`Cn1nc(NC(=O)c2ccco2)c2cccnc21`: the AC40 in assay [2] was 20.4 µM.
Same read-out and setting: as for `Cc1ccc2cc3c(NC(=O)c4ccco4)nn(C)c3nc2c1`, the figure is 6.52 µM and 15.8 µM.
As to `O=S(=O)(Nc1nnc(-c2ccc3c(c2)OCCO3)o1)c1ccc(Cl)cc1`, the activation in assay [1] (at 100 µM (top of the series)) was -1.11% (inactive).
Consider `O=C(CC1CCCCC1)Nc1nnc(-c2ccc3c(c2)CCCC3)o1`, for which the activation in assay [1] (at 35 µM (top of the series)) was 0.843% (inactive).
With `O=C(Nc1nnc(-c2ccncc2)o1)C1CCC1`, the activation in assay [1] (at 100 µM (top of the series)) was 0.692% (inactive).
As to `Cc1cc2nc3c(cc2cc1F)c(NC(=O)c1ccco1)nn3C`, in assay [2], the AC40 is 21.7 µM.
For the molecule `O=C(Nc1nnc(-c2ccc3c(c2)OCCO3)o1)C1CCCCC1`, in assay [2], the AC40 was 4.54 µM and 1.67 µM.
Consider `O=C(Nc1nnc(-c2ccc3c(c2)OCCO3)o1)C1CCCC1`, for which the activation in assay [1] (at 80 µM (top of the series)) is 8.16% (inactive).
In the case of `COc1ccc(S(=O)(=O)Nc2nnc(-c3ccc4c(c3)OCCO4)o2)cc1`, the activation in assay [1] (at 100 µM (top of the series)) is -1.4% (inactive).
With `CCc1ccc2cc3c(NC(=O)c4ccco4)nn(C)c3nc2c1`, in assay [2], the AC40 was 31 µM.
With `O=C(Nc1nnc(-c2ccc3c(c2)OCCO3)o1)C(F)(F)c1ccccc1`, the activation in assay [1] (at 100 µM (top of the series)) was -1.19% (inactive).
Still for that read-out and setting: with `O=C(Nc1nnc(-c2ccc3c(c2)OCCO3)o1)C1CCC1` the figure was 0.218% (inactive).
For `O=C(Nc1nnc(-c2cccc(Cl)c2)o1)C1CCCCC1`, the activation in assay [1] (at 80 µM (top of the series)) was 1.82% (inactive).
For `O=C(Nc1nnc(-c2ccccc2Cl)o1)C1CCCCC1`, the activation in assay [1] (at 100 µM (top of the series)) is 0.072% (inactive).
`COc1ccc(-c2nnc(NC(C)=O)o2)cc1`: the activation in assay [1] (at 100 µM (top of the series)) was 1.64% (inactive).
Regarding `O=C(Nc1nnc(-c2ccc(Cl)cc2)o1)C1CCCCC1`, in assay [1] (at 80 µM (top of the series)), the activation was -1.2% (inactive).
In the case of `Cn1nc(NC(=O)c2ccco2)c2cc3ccccc3nc21`, in assay [2], the AC40 was 4.18 µM.
The same measure, in the same setting: with `Cc1cc(F)c2cc3c(NC(=O)c4ccco4)nn(C)c3nc2c1` the figure was 76.2 µM; with `Cc1cc(F)cc2nc3c(cc12)c(NC(=O)c1ccco1)nn3C`, 70.7 µM.
Turning to `Cc1ccc2cc3c(NC(=O)c4ccc(C)o4)nn(C)c3nc2c1`, in assay [1] (at 100 µM (top of the series)), the activation was 0.174% (inactive).
Turning to `c1ccc(CNc2nnc(-c3ccc4c(c3)OCCO4)o2)cc1`, the activation in assay [1] (at 100 µM (top of the series)) was -0.54% (inactive).
Still for that read-out and setting: as for `Cc1ccc2cc3c(NC(=O)c4ccccn4)nn(C)c3nc2c1`, the figure is 1.04% (inactive).
As for `COc1ccc(-c2nnc(NC(=O)C3CCCCC3)o2)cc1`, the AC40 in assay [2] was > 100 µM (inactive).
